Experimental data as given in patent US20260125762A1, “METHODS OF IDENTIFYING AND TREATING TUMORS WITH SIGMA1 INHIBITORS” (Drexel University, priority 2016, published 2026).

Tests used:
[1] = tested on: MDAMB231; assay: MDAMB231 orthotopic xenograft tumor growth; format: in vivo, female SCID Beige mice; conditions: MDAMB231 (predicted resistant) in mammary fat pad; 10 mg/kg ip q2d; treatment stopped Day 20
Procedure: (§1) MDAMB231 cells (ATCC, Manassas, VA, cat #HTB-26) were implanted orthotopically (2×10^6 per mouse) as a mixture in Matrigel (50%) into the mammary fat pad of female SCID Beige mice (10 mice per treatment arm) and grown to a volume of about 75 mm^3 prior to compound administration. CT-110 was dosed alone at 10 mg/kg ip, once every two days (ip, q2d) in 1% (weight/volume) sodium carboxymethyl cellulose/0.5% (volume/volume) Tween-80. A control group received vehicle alone (1% (weight/volume) sodium carboxymethyl cellulose/0.5% (volume/volume) Tween-80ip q2d). All drug treatment was stopped on Day 20. The major endpoint is to assess whether the tumor growth can be delayed or mice can be cured. Tumor sizes are measured twice weekly in two dimensions using a caliper, and the volume is expressed in mm^3 using the formula: V=0.5 a×b^2 where a and b are the long and short diameters of the tumor, respectively. The tumor sizes are then used for the calculations of both T-C and T/C values. T-C is calculated with T as the median time (in days) required for the treatment group tumors to reach a predetermined size (e.g., 1,000 mm^3), and C is the median time (in days) for the control group tumors to reach the same size. The T/C value (in percent) is an indication of antitumor effectiveness, T and C are the mean volume of the treated and control groups, respectively, on a given day.

[2] = tested on: BT474; assay: BT474 orthotopic xenograft tumor growth; format: in vivo, female SCID Beige mice; conditions: BT474 (predicted sensitive) in mammary fat pad; 10 mg/kg ip q2d; treatment stopped Day 30
Procedure: as §1, with “BT474” for “MDAMB231”, “#HTB-20)” for “#HTB-26)”, “125” for “75”, “30.” for “20.”

[3] = tested on: COLO205; assay: NCI-60 single-dose in vitro growth inhibition assay; format: cell-based, human; conditions: single-dose 10 μM
Procedure: (§2) As in FIG. 1, Compound CT-110 was used in single-dose (10 μM) in vitro growth inhibition assays of the NCI-60 cell lines. The NCI-60 panel contains 60 diverse human cancer cell lines screened with more than 100,000 chemical compounds for anticancer activity since 1990 by the Developmental Therapeutics Program (DTP). See Huang, et al., 2005, Pharmacogenomics J. 5:381-99; Staunton, et al., 2001, PNAS USA 98(19):10787-92; Covell, et al., 2007, Mol. Cancer Ther. 6:2261-70; Potti, et al., 2006. Nat. Med. 12(11):1294-300. Standardization of NCI-60 inhibition data into Z-scores. NCI-60 cell line percent growth data obtained after culture in the presence of CT-110 were converted to percent growth inhibition by the formula 100−% Growth. A Z-score for each cell line data point was calculated using the formula (X-value minus 60-element array average)/(Array standard deviation). Z-scores are associated with a normal distribution and are used (1) to indicate where a score lies relative to the entire data set, above or below the mean, and (2) to compare scores derived from different normal distributions. Narrowing the 25K+ CellMiner genes to a CT-110 inhibition signature set of 6 genes. Pattern comparison searching yielded a list of 1,080 genes having significant Pearson correlations (r>0.334 or r<−0.334) to the NCI-60 Z-score profile of CT-110. Cross-referencing this profile-matching list with 1,106 cancer-relevant genes comprising a 755-gene PanCancer and Custom Codeset, supplemented with 545 “Cancer Driver” genes (Integrative OncoGenomics, BROAD Institute TARGET Database v3, Targeted Therapies for Cancer), reduced the number of genes to fifty (50). NCI-60-based Z-score profiles for these 50 genes were obtained using the CellMiner “Cell Line Signature Analysis” query. […] Z-scores, reflective of gene expression level and directionality, were used to identify forty-five (45) genes out of the […] (Table 3) that had expression either up or down in at least 4 out of the 5 CT-110-sensitive or resistant cell lines (assessed independently). […] These six genes (CDH1, CREB3L4, PIK3C2B, RNF43, SREBF1 and ZMYM2) are the end result of the rational approach to establish a focused set of genes, with expression profiles reflecting the growth inhibition profile of CT-110 in sensitive and resistant cancer cell lines.

[4] = tested on: UACC-257; assay: as above; format: cell-based, human; conditions: single-dose 10 μM
Procedure: as §2

[5] = tested on: SK-MEL-28; assay: as above; format: cell-based, human; conditions: single-dose 10 μM
Procedure: as §2

[6] = tested on: HT29; assay: as above; format: cell-based, human; conditions: single-dose 10 μM
Procedure: as §2

[7] = tested on: SK-MEL-2; assay: as above; format: cell-based, human; conditions: single-dose 10 μM
Procedure: as §2

[8] = tested on: OVCAR-8; assay: as above; format: cell-based, human; conditions: single-dose 10 μM
Procedure: as §2

[9] = tested on: OVCAR-3; assay: as above; format: cell-based, human; conditions: single-dose 10 μM
Procedure: as §2

[10] = tested on: SK-MEL-5; assay: as above; format: cell-based, human; conditions: single-dose 10 μM
Procedure: as §2

[11] = tested on: MCF7; assay: as above; format: cell-based, human; conditions: single-dose 10 μM
Procedure: as §2

[12] = tested on: RPMI-8226; assay: as above; format: cell-based, human; conditions: single-dose 10 μM
Procedure: as §2

For N=C(NCCCOc1ccc(F)cc1)Nc1ccc(Cl)cc1 [CT-110, 1-(3-(4-fluorophenoxy)propyl)-3-(4-chlorophenyl)guanidine], which “tumor growth T/C” value [1] is on record?
The value was less than 10%.

And the “tumor growth T/C” value [2]?
The value was 70%.

What about the “sensitivity to Sigma1 inhibition by CT-110 (growth inhibition rank in NCI-60)” value (“sensitivity to Sigma1 inhibition” for short) [3] of the same compound?
Its value is “most sensitive”.

And the “sensitivity to Sigma1 inhibition” value [4]?
The value was “most sensitive”.

What about the “sensitivity to Sigma1 inhibition” value [5] of the same compound?
Its value is “most resistant”.

What about the “sensitivity to Sigma1 inhibition” value [6] of the same compound?
The value was “most sensitive”.

What about the “sensitivity to Sigma1 inhibition” value [7] of the same compound?
Its value is “most resistant”.

What about the “sensitivity to Sigma1 inhibition” value [8] of the same compound?
The value was “most resistant”.

What about the “sensitivity to Sigma1 inhibition” value [9] of the same compound?
Its value is “most resistant”.

What about the “sensitivity to Sigma1 inhibition” value [10] of the same compound?
Its value is “most sensitive”.

And the “sensitivity to Sigma1 inhibition” value [11]?
The value was “most sensitive”.

What about the “sensitivity to Sigma1 inhibition” value [12] of the same compound?
The value was “most resistant”.
